In BindingDB's records for patent US20230348456 (Repare Therapeutics, 2023) one finds IC50 data, which are given here for five molecules.

The target of the assay is T1, Membrane-associated tyrosine- and threonine-specific cdc2-inhibitory kinase (Homo sapiens, UniProt Q99640).
T1 sequence (Q99640 whole entry): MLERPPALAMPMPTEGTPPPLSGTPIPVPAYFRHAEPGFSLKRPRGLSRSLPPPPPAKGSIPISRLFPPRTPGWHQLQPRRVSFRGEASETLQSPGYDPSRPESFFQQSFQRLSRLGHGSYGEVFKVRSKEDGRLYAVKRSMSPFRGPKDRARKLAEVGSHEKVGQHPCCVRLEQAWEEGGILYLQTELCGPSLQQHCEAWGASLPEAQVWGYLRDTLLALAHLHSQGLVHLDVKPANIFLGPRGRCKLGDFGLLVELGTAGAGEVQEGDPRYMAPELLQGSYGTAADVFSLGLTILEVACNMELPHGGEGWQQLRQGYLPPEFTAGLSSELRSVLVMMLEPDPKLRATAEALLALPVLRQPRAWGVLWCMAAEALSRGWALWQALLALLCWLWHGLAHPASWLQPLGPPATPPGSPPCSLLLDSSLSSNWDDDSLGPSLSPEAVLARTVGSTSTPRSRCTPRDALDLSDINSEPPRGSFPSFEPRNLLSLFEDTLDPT
The experiment in a line: Enzymatic Assay. The method, then: Detection of Myt1 kinase activity utilized a recombinant human Myt1 kinase assay measuring the hydrolysis of ATP using a commercially available ADP-Glo Assay (ADP-Glo Kinase Assay from Promega, 10 000 assays, #V9102). Briefly, 5 μL recombinant human Myt1 (full length PKMYT1 recombinant human protein expressed in insect cells from Thermo Fisher #A33387; 80% purity) was prepared in reaction buffer (70 mM HEPES, 3 mM MgCl2, 3 mM MnCl2, 50 μg/ml PEG 20000, 3 μM Na-orthovanadate, 1.2 mM DTT) and added to 384 well white polystyrene, flat bottom well, non-treated, microplate (Corning #3572). After this, 5 μL of compounds (diluted in reaction buffer to 0.5% DMSO) was added to the microplate and the plate was spun briefly and incubated at 22 C. for 15 minutes. Ultra-Pure Adenosine Triphosphate (ATP) solution (ADP-Glo kit from Promega) was diluted in reaction buffer and 5 μL was added to the microplate, spun down briefly and incubated for 60 minutes at 30 C. The final Myt1 enzyme concentration was 18 nM and the final ATP concentration was 10 μM. After the 60-minute incubation, 15 μL of ADP-Glo reagent was added and the plate was spun briefly and sealed and incubated in the dark for 40 minutes at 22 C. Following this, 30 μL of kinase detection reagent was added per well and the plate was spun briefly, sealed and incubated for 45-60 minutes at 22 C. in the dark. Luminescence was read using the Envision (250 ms integration). T
`Nc1ccc(-c2nc3c(Br)cc(-c4cccc5[nH]ncc45)c(N)c3c(=O)[nH]2)cn1` [US20230348456, Compound 7] yielded an IC50 of 4 nM.
In the case of `Nc1c(-c2cccc3[nH]ncc23)cc(Br)c2nc(-c3ccc(N4CCC5(CC4)COC5)nc3)[nH]c(=O)c12` [US20230348456, Compound 34], 10 nM corresponded to half-maximal inhibition (IC50).
Consider `Nc1c(-c2cccc3[nH]ncc23)cc(-c2nccs2)c2nc(-c3ccc(CN4CCOCC4)cc3)[nH]c(=O)c12` [US20230348456, Compound 39], for which it took 8 nM to reach half-maximal inhibition (IC50).
For the molecule `Nc1c(-c2cccc3[nH]ncc23)cc(-c2cccc(OC3CCOCC3)c2)c2nc(-c3ccncc3)[nH]c(=O)c12` [US20230348456, Compound 65], half-maximal inhibition (IC50) was put at 4 nM.
Molecule `Nc1c(-c2cccc3[nH]ncc23)cc(-n2cccn2)c2nc(-c3ccncc3)[nH]c(=O)c12` [US20230348456, Compound 77] returned an IC50 of 4 nM.

Usually IC50 stands for the concentration that gives 50% inhibition. Read a high IC50 as a need for much substance.
